Results published in patent US20090325959A1 (priority 2008, published 2009).
Like-named read-outs stand apart in the source and are kept apart here.

Key:
p70S6K human enzyme = target: T1, p70S6K human enzyme (Homo sapiens, UniProt P23443, T412E); experiment: p70S6K inhibition assay (IMAP FP); assay type: biochemical;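 further: kinase reaction run at room temperature, phosphorylated substrate captured on IMAP beads and read as fluorescence polarization in mP, IC50 then converted to Ki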
T1 construct: purchased Upstate Chemicon 14-486

[1] = Compound plasma concentrations in unsensitized mice at 15 min post administration; assay type: in vivo; conditions: mouse, 15 μmol/kg; mean compound plasma concentration in mice at 15 minutes post oral administration; read-out: Mouse Oral PK
Protocol: Additionally, compound concentrations were determined in the plasma and lungs of male, ovalbumin-sensitized, Balb/c mice from a murine model of asthma. Test compounds were formulated in water or 1% polysorbate 80 and dosed at 15 μmol/kg for intraperitoneal (IP) or oral (PO) administration or formulated for intratracheal (IT) administration and dosed at 5 μmol/kg, which directly targets the lungs. Following completion of the in vivo study, mice were euthanized and blood and plasma collected approximately 2.5-3 hours post administration of test compound for bronchodialator (BD) studies and 24 hours post administration for anti-inflamatory (AI) studies. Lungs were homogenized in Matrix A lysing tubes using a FastPrep 24 tissue and cell homogenizer (MP Biomedicals, Solon, Ohio). Both plasma samples and lung extracts were assayed for compound concentrations using an on-line, solid phase extraction LC/MS/MS system.

ROCK2 = target: T2, ROCK2 (Homo sapiens, UniProt O75116); experiment: Rho kinase inhibition assay (IMAP fluorescence polarization), ROCK2; assay type: biochemical;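 further: kinase reaction started with 10 µM ATP and run 60 min at room temperature, then phosphorylated substrate captured on IMAP beads for 30 min and fluorescence polarization read in mP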
T2 construct: purchased Upstate/Chemicon 14-451
Protocol: (§1) Following the pre-incubation, 10 μM ATP was added to initiate the reaction. After 60 minutes at room temperature, Molecular Devices IMAP™ binding solution was added to bind phosphorylated substrate. After 30 minutes of incubation in the presence of the IMAP™ beads, the fluorescence polarization was read and the ratio was reported as mP. IC50 values for compounds and EC50 values for ATP were calculated using the Prism software from Graphpad.

ROCK1 = target: T3, ROCK1 (Homo sapiens, UniProt Q13464); experiment: Rho kinase inhibition assay (IMAP fluorescence polarization), ROCK1; assay type: biochemical;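 further: kinase reaction run 60 min at room temperature, then phosphorylated substrate captured on IMAP beads for 30 min, with fluorescence polarization read in mP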
T3 construct: purchased Upstate/Chemicon 14-601
Protocol: as §1

Akt3 human enzyme = target: T4, Akt3 human enzyme (Homo sapiens, UniProt Q9Y243); experiment: Akt3 inhibition assay (IMAP FP); assay type: biochemical;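 further: kinase reaction run 60 min at room temperature after 30 µM ATP start, phosphorylated substrate captured on IMAP beads and read as fluorescence polarization (mP)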
T4 construct: purchased Upstate Chemicon 14-502

[2] = 30 μM ATP, Ki=IC50/(1+([ATP Challenge]/EC50 ATP)), read-out: p70S6K Ki, Avg
[3] = average Ki, read-out: p70S6K Ki
[4] = 10 μM ATP, read-out: ROCK2 Ki, Avg
[5] = 30 μM ATP, Ki=IC50/(1+([ATP Challenge]/EC50 ATP)), read-out: Akt3 Ki, Avg

T4 sequence (Q9Y243 whole entry): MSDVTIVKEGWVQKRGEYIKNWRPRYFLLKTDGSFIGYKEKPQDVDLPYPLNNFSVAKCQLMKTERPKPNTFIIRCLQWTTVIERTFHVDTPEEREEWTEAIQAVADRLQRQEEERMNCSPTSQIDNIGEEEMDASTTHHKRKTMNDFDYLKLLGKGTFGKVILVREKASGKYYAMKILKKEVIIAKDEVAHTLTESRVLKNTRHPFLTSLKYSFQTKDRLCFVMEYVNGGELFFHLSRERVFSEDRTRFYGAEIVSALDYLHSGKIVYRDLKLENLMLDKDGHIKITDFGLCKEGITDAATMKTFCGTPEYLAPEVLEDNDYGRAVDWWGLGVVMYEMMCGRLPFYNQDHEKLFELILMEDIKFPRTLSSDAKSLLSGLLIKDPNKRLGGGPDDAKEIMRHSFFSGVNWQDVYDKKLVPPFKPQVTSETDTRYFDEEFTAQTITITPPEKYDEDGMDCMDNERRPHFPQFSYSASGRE
T3 sequence (Q13464 17-535 limits assumed): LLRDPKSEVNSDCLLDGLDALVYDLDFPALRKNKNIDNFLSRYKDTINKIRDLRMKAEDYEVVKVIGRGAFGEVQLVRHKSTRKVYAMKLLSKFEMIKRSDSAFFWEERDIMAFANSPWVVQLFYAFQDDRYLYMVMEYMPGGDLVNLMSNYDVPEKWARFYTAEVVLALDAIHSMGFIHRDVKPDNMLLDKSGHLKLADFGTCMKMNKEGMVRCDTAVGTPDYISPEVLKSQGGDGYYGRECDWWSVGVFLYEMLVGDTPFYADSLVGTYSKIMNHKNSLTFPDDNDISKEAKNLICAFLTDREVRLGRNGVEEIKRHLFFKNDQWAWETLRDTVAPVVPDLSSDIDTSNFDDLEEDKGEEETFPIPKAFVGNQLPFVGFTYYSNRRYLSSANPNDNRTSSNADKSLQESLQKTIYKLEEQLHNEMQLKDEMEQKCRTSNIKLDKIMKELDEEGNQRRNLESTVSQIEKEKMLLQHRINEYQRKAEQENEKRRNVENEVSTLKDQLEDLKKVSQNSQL
T1 sequence (P23443 1-421 T412E limits assumed): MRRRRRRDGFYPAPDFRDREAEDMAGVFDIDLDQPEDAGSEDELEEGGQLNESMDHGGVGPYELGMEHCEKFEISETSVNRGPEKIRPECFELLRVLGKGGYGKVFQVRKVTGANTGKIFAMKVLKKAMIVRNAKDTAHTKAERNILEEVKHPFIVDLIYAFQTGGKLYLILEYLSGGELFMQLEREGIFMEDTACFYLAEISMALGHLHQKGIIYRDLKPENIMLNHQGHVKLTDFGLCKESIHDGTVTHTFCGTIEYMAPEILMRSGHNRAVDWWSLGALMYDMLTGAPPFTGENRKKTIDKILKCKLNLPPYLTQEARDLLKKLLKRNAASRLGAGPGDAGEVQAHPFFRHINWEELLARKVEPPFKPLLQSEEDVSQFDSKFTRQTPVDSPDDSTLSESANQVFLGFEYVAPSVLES
T2 sequence (O75116 11-552 limits assumed): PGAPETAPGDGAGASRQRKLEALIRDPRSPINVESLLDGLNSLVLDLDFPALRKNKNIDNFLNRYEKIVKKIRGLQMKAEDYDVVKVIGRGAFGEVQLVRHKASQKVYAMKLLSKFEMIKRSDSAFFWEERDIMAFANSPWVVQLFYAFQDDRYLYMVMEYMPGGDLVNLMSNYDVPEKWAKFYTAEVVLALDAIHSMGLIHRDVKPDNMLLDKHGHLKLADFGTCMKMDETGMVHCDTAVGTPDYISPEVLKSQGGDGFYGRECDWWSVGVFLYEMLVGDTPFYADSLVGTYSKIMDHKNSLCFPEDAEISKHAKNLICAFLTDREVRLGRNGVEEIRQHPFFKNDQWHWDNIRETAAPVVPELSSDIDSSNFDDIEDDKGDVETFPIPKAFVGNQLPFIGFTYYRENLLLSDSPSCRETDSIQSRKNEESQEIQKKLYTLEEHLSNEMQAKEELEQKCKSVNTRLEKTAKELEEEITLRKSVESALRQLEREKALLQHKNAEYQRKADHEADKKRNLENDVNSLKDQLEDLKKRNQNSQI

SMILES	Ki (p70S6K human enzyme; [2]) [nM]	Ki (p70S6K human enzyme; [3]) [nM]	concentration at 15 min [1] [nM]	Ki (ROCK2; [4]) [nM]	Ki (ROCK2; average Ki, read-out: ROCK2 Ki) [nM]	Ki (ROCK1; Avg, 10 μM ATP) [nM]	Ki (ROCK1; average Ki) [nM]	Ki (Akt3 human enzyme; [5]) [nM]	Ki (Akt3 human enzyme; average Ki, read-out: Akt3 Ki) [nM]
Clc1ccc(CN2CCC[C@H](Nc3ccc4[nH]ncc4c3)C2)cc1 [Compound 1.141, (S)-N-(1-(4-chlorobenzyl)piperidin-3-yl)-1H-indazol-5-amine]	387	387	1640	3.8	3.8	28.5	28.5	1260	1260
c1cc2cc(CN3CCC[C@H](Nc4ccc5[nH]ncc5c4)C3)ccc2[nH]1 [Compound 1.149, (S)-N-(1-((1H-indol-5-yl)methyl)piperidin-3-yl)-1H-indazol-5-amine]	1890	1890	1560	4.2	4.2	46.8	46.8	7400	7400
c1cc2cc(CN3CCC[C@H](Nc4ccc5[nH]ncc5c4)C3)ccc2o1 [Compound 1.150, (S)-N-(1-(benzofuran-5-ylmethyl)piperidin-3-yl)-1H-indazol-5-amine]	1270	1270	1390	3.2	3.2	33.2	33.2	3180	3180
Cc1ccc(CN2CCC[C@H](Nc3ccc4[nH]ncc4c3)C2)cc1OCCO [Compound 1.152, (S)-2-(5-((3-(1H-indazol-5-ylamino)piperidin-1-yl)methyl)-2-methylphenoxy)ethanol]	523	523	435	3.3	3.3	19.8	19.8	1980	1980
C#Cc1cccc(CN2CCC[C@H](Nc3ccc4[nH]ncc4c3)C2)c1 [Compound 1.153, (S)-N-(1-(3-ethynylbenzyl)piperidin-3-yl)-1H-indazol-5-amine]	2380	2380	522	4.2	4.2	62.8	62.8	9950	9950
Cc1ccc(CN2CCC[C@H](Nc3ccc4[nH]ncc4c3)C2)c(C)c1 [Compound 1.155, (S)-N-(1-(2,4-dimethylbenzyl)piperidin-3-yl)-1Hindazol-5-amine]	1750	1750	32	7	7	45.4	45.4	5680	5680
Cc1cccc(CN2CCC[C@H](Nc3ccc4[nH]ncc4c3)C2)c1C [Compound 1.156, (S)-N-(1-(2,3-dimethylbenzyl)piperidin-3-yl)-1H-indazol-5-amine]	3240	3240	88	13	13	136	136	8770	8770
CS(=O)(=O)Cc1cccc(CN2CCC[C@H](Nc3ccc4[nH]ncc4c3)C2)c1 [Compound 1.157, (S)-N-(1-(3-(methylsulfonylmethyl)benzyl)piperidin-3-yl)-1H-indazol-5-amine]	8690	8690	357	8.8	8.8	264	264	29200	29200
CSc1cccc(CN2CCC[C@H](Nc3ccc4[nH]ncc4c3)C2)c1 [Compound 1.158, (S)-N-(1-(3-(methylthio)benzyl)piperidin-3-yl)-1H-indazol-5-amine]	1970	1970	102	5.1	5.1	64.1	64.1	5910	5910
Oc1cccc(CN2CCC[C@H](Nc3ccc4[nH]ncc4c3)C2)c1 [Compound 1.163, (S)-3-((3-(1H-indazol-5-ylamino)piperidin-1-yl)methyl)phenol]	1880	1880	10	2.9	2.9	33.6	33.6	4420	4420
Fc1ccc(CN2CCC[C@H](Nc3ccc4[nH]ncc4c3)C2)cc1 [Compound 1.164, (S)-N-(1-(4-fluorobenzyl)piperidin-3-yl)-1H-indazol-5-amine]	1960	1960	1500	6.1	6.1	42.4	42.4	4310	4310
